The values that follow come from patent publication EP4069192B1 (Solis Herrera, Arturo, priority 2019, dated 2021).

The subject of series [1] is A549 cells. Briefly: cells. As to conditions: Homo sapiens, A549, 96 h. How it is done: (§1) Further, a proliferation test was prepared for the same three cell lines: WI-38, A549 and HS 683. 3x10^4 WI-38 cells and 2x10^4 A549 and HS 683. Cells were seeded into each wells in 96-well culture plates in appropriate culture medium with 10% FBS (fetal bovine serum). […] After 96 hours incubation in 37°C/5%CO2 MTT assay was performed for establishing the cell viability.

The subject of series [2] is HS-683. Briefly: cells. The settings on record: Homo sapiens, Hs 683, 96 h. Here is the method:
as §1

The subject of series [3] is WI-38 cells. Briefly: cells. As to conditions: Homo sapiens, WI-38, 96 h. Here is the method: as §1
Series [4] relates to IFN-γ production. How it is done: (§2) After 24 hours of incubation in 37°C/5%CO2 samples of leukocytes and supernatants were collected.
(§3) Cytokine levels were determined using ELISA kits (BD Biosciences, USA) for human IFNγ, TNF-α and IL-6 and DuoSet for human IL-3 (R&D Systems, USA) according to the producers' instructions. The optical density was measured at 450 nm using a Multiskan RC spectrophotometric reader (Thermo Labsystems, USA), Cytokine concentrations were expressed in pg/ml.

Series [5] deals with IL-6 production. How it is done: as §2, §3
Series [6] deals with TNF-α production. Here is the method:
as §2, §3

Series [7] has as its system H1N1 virus. As to conditions: 0,002 mg/kg each 24 hours; 24 hours after treatment; 15000 treated vs 15000 control chicken, control turned down the production of eggs.
The conditions of series [8]: rat, in vivo.
For series [9] the following is noted: in vivo.
The subject of series [10] is A549 (human lung adenocarcinoma epithelial cell line). The settings on record: A549, 48 hours, MTT.
Series [11] has as its system HS683 (human neuronal glioma cell line). The settings on record: HS-683, 48 hours, MTT.
The subject of series [12] is human PBLs (leukocytes of peripheral blood). The settings on record: 48 hours, MTT.
Method: Thereby, cell viability was determined on the basis of the mitochondria-dependent reduction of MTT (3-[4,5-dimethyltiazol 2yl]-2,5-diphenyltetrazolium bromide) to formazan. […] Next cells were treated with 20 µl of MTT. After 3 hours of incubation at 37°C, the formazan blue formed in the cells was dissolved in 100 µl of SDS (sodium dodecylsulfate) for 3 hours in 37°C. The optical density was measured at 570 nm.
After the cytotoxicity tests LC50 (LC50-lethal concentration, 50%-dose required to kill half of the cells after a specified test duration) were estimated for each cell lines and PBLs (leukocytes of peripheral blood). Additionally for PBLs LC10 and LC5 were calculated.
On the basis of the results of MTT assay for human leukocytes the LC50, LC10 and LC5 were evaluated.
In series [13] the test system is cell proliferation. The series is described as follows: cells. The settings on record: Homo sapiens, read-out: doses that inhibit 50% of cell proliferation.
The conditions of series [14]: intranasal spray, single 3 mg dose, women, before emergence from general anesthesia; cited from earlier work.
Setting [15] is: read-out: concentration that inhibits 50% of the proliferation.

In brackets after ≈: the same amount, converted by molar mass. Where only a bound is given, the exact number is not on record here.

As to `CN1CCC[C@H]1c1cccnc1`, the IC50 in [1] (setting [15]) was 2000 µg/mL (≈ 12.3 mM); in series [2] (setting [15]) it was 2900 µg/mL (≈ 17.9 mM); in series [3] (setting [15]), 1000 µg/mL (≈ 6.16 mM); in series [13] it was over 1000 µg/mL. Also, the figures for the IC99 in [1] (read-out: concentration that inhibits 99% of the proliferation), in series [2] (read-out: concentration at which 99% of proliferation are inhibited) and in series [3] (read-out: concentration that inhibits a proliferation of 99%) were 5500 µg/mL, 5500 µg/mL and 4500 µg/mL, respectively. Further, in series [4], the “effect on IFN-γ production” value is recorded as “strongly decreases the level of interferon in a dose-dependent manner”. Also, the “effect on IL-6 production” value in [5] is recorded as “no effect”. Moreover, in [6], the “effect on TNF-α production” value is recorded as “increases the level of cytokines in a dose-dependent manner”. Also, the production of eggs entry in series [7] was “began to lay off eggs”. In addition, the mortality in series [8] is 0,625 of 8 rats. In series [9], the healing effect entry is reported as “increased healing effect”. Also, the figures for the LC50 in series [10] and in series [11] were 4,5 mg/ml and 3,5 mg/ml, respectively. Also, in series [12], the LC5 is recorded as 0,5 mg/ml. For the same compound, the LC10 in series [12] stood at 1000 µg/mL (≈ 6.16 mM). Besides, the “pain scores during the first day post-surgery” value in series [14] is listed as “significant reduction in pain scores”. In addition, the “risks of hypertension of tachycardia” value in [14] was “not increasing the risks”.
